Source: publication PMC7230232, “Secondary Metabolites from the Culture of the Marine-derived Fungus Paradendryphiella salina PC 362H and Evaluation of the Anticancer Activity of Its Metabolite Hyalodendrin” (Marine Drugs, 2020)
“And” between values parts separate entries of the source, which are not always exact repeats. Identical values can stand only once. Like-named read-outs stand apart in the source and are kept apart here.

Key:
[1] = system: 3T3-F442A cells; experiment: MTT cell viability assay, 3T3-F442A pre-adipocytes; format: cell-based, murine; details: pure compounds, MTT, read-out: IC50 3T3-F442A
Description: (§1) Cellular viability was determined by the MTT (methylthiazolyldiphenyl-tetrazolium bromide) assay. Briefly, cells were exposed to the indicated concentrations of crude extracts or compounds 1–4 for five doubling times and then incubated for 3 h at 37 °C with MTT. Formazan crystals were then dissolved in DMSO and optical density measured at 570 nm in a microplate reader. The half-maximal inhibitory concentration (IC50) was determined. Values given for crude extracts are averages of at least two experiments done in duplicate. IC50 values calculated for the four isolated compounds and the commercially available 4-hydroxy-tamoxifen (Sigma-Aldrich) are averages of at least three experiments done in duplicate.

[2] = system: MCF7-Sh-WISP2 cells; experiment: MTT cell viability assay, MCF7-Sh-WISP2; format: cell-based, human; details: pure compounds, MTT, read-out: IC50 MCF7-Sh-WISP2
Description: as §1

[3] = system: MCF7 cells; experiment: MTT cell viability assay, MCF7; format: cell-based, human; details: MTT, read-out: IC50 MCF7
Description: as §1

[4] = system: Plasmodium falciparum (chloroquine-resistant FcB1/Colombia strain); experiment: Anti-plasmodial assay ([3H]hypoxanthine incorporation); format: cell-based; details: data not shown, read-out: IC50 against Plasmodium falciparum
Description: Supplementary materials and methods.
The fungus was isolated in January 2012 as an endophyte from the holdfast of P. caniculata harvested in Roscoff (Britany, France). Both morphological assessment and internal transcribed spacer (ITS) sequencing were performed to identify it as Paradendryphiella salina. It is now maintained at the MCAM culture collection (Muséum National d’Histoire Naturelle, Paris) under the number PC 362H.
The anti-plasmodial activity was evaluated against the chloroquine-resistant FcB1/Colombia strain of Plasmodium falciparum. The assay was performed using the method of Desjardins (Desjardins et al., 1979). Extracts and pure compounds were diluted in Dimethyl Sulfoxyde (DMSO) and added to the culture medium (final concentration: 20 µg/mL) in 96-well microplates. Asynchronous parasite cultures were then added (1 % parasitemia and 1 % final hematocrite), and plates were maintained for 24 hours at 37 °C in a candle jar. […] After a cycle of freezing and thawing, the cells were harvested from each well onto glass fiber filters, and the dried filters were counted in a scintillation counter. The growth inhibition for each well was determined by comparison of the radioactivity incorporated into the treated culture with that in the control culture maintained on the same plate. […]

[5] = Homo sapiens, MCF7, pure compounds

Compound | IC50 ([1]; Mus musculus) | IC50 ([2]; Homo sapiens) | IC50 [3, 5] | IC50 [4] [µM] | IC50 [1] [µM] | IC50 [2] [µM] | IC50 ([3]; pure compounds) [µM]
COC(=O)CNC(=O)CC[C@@H](C)[C@H]1CC[C@H]2[C@H]3C(C[C@H](O)[C@]12C)[C@@]1(C)CC[C@@H](O)C[C@H]1C[C@H]3O (stereo partly shown) [Compound 2, glycocholic acid methyl ester] | > 25 µg/mL and > 50 µM | > 25 µg/mL and > 50 µM | > 25 µg/mL and > 50 µM | 20.5 ± 3.5 |  |  | 
CS[C@]1(CO)C(=O)N(C)[C@](Cc2ccccc2)(SC)C(=O)N1C [Compound 4, (3R, 6R) bisdethiodi(methylthio)hyalodendrin] | 92 µg/mL and 26 µM | 24 µg/mL and 68 µM | 15 µg/mL and 42 µM |  |  |  | 
C[C@H](C(=O)O)[C@H]1CC[C@@]2(C)C3=C(C[C@@H](O)[C@]12C)[C@@]1(C)CC[C@H](O)C(C)(C)C1CC3 (relative stereo) [Compound 1, Dendryphiellide A] | > 25 µg/mL | > 25 µg/mL | 20 µg/mL | 65 ± 4.2 | > 60 | > 60 | 
4-hydroxy-tamoxifen [Hydroxi Tamoxifen, reference compound] |  |  |  |  | 14.5 | 11.6 | 8.8
